We go through ten compounds from ChEMBL document CHEMBL4414617, “Identification of 2-Imidazopyridine and 2-Aminopyridone Purinones as Potent Pan-Janus Kinase (JAK) Inhibitors for the Inhaled Treatment of Respiratory Diseases” (J Med Chem, 2019).

In general, IC50 refers to the concentration that gives 50% inhibition. For orientation: AUC(0-inf) means total exposure, with the tail of the curve extrapolated. Lower therefore signals low exposure. By AUC is commonly meant concentration integrated over time. The low end stands for low exposure, the high end for high exposure. The fraction unbound is the share of the substance not bound to proteins or other matrix. High values mean much free substance, low ones little free substance. As a reminder, the Cmax is the peak of the concentration-time curve. By inhibition is commonly meant how much of the control response was suppressed. Higher therefore signals strong suppression. As usually defined, the half-life is the time in which the quantity being followed falls by half. Lower therefore signals rapid decline. In general, logD refers to the decadic logarithm of the distribution of all forms, ionised or not, between an organic phase and buffer at a given pH. Low readings indicate a more hydrophilic compound, high ones a more lipophilic compound. A word on the Papp: it is a coefficient for how fast a substance crosses the barrier. The low end stands for slow passage, the high end for fast passage.

Data set [1] addresses Tyrosine-protein kinase JAK1 (Homo sapiens, UniProt P23458).
Description: Inhibition of recombinant human GST-tagged JAK1 (866 to 1154 residues) expressed in baculovirus expression system using PolyGT-Biotin as substrate measured after 3 to 20 hrs by HTRF assay
In a further data set the test system is CHO-K1. In words: cells. The data set is classed as ADME, cell-based. The note with it: Cricetulus griseus, CHO-K1, 24 h.
The nature of data set [2]: in vitro. The note with it: rat, microsomes.
Description: Drug metabolism in rat liver microsomes at 5 uM incubated for 30 mins by UPLC-MS/MS analysis
The conditions of data set [3]: rat, in vivo, inhaled or intranasal, 3 mg/kg, 24 h.
Description: Free maximum concentration of drug in Sprague-Dawley rat at 3 mg/kg administered intratracheally as nanosuspension measured up to 24 hrs by LC-MS/MS analysis
Data set [4] in a line: in vivo. The conditions noted are these: Wistar, rat, po, 30 mg/kg.
Data set [5] can be described thus: in vivo. The conditions noted are these: Wistar, rat, inhaled or intranasal.
Data set [6] is described as follows: in vitro. The note with it: human, plasma.
Description: Protein binding in human plasma by LC-MS/MS-based equilibrium dialysis method
For data set [7] the following is noted: buffer.
Description: Solubility of the compound in sterile water with 0.2% Tween80 using nanosuspension formulation
Data set [8] is described as follows: in vitro. The note with it: rat, plasma.
Description: Protein binding in rat plasma by LC-MS/MS-based equilibrium dialysis method
Data set [9] is described as follows: in vivo. The conditions noted are these: Sprague-Dawley, rat, inhaled or intranasal, 3 mg/kg.
Data set [10] in a line: in vivo. The note with it: Wistar, rat, po, 30 mg/kg. The source holds these as a separate data set.
The target in a further data set is hERG (KCNH2) (Homo sapiens, UniProt Q12809). Briefly: in vitro.
The nature of data set [11]: in vivo. The conditions noted are these: Wistar, rat, inhaled or intranasal. The source holds these as a separate data set.
Description: Half life in Wistar rat at 0.41 mg/kg administered intratracheally as nanosuspension measured up to 24 hrs by LC-MS/MS analysis
Data set [12] is described as follows: in vitro. The conditions noted are these: human, microsomes.
Description: Drug metabolism in human liver microsomes at 5 uM incubated for 30 mins by UPLC-MS/MS analysis
The conditions of data set [13]: buffer, pH 1.2.
Description: Chemical stability of compound at pH 1.2 to 9
Another data set deals with Cav1.2 (Homo sapiens, UniProt Q13936). In words: in vitro.
The target in a further data set is NaV1.5 (Homo sapiens, UniProt Q14524). Briefly: in vitro.
A further data set can be described thus: physchem. The conditions noted are these: octanol/water.
For data set [14] the following is noted: buffer. The source holds these as a separate data set.
Description: Solubility of the compound in PBS with 0.2% Tween80 using nanosuspension formulation
Data set [15] can be described thus: in vitro. The note with it: PAMPA. For orientation: The PAMPA barrier holds no transporters, so it reflects passive diffusion.
Description: Apparent permeability of compound at 20 uM measured after 5 hrs by PAMPA

Sequence of Tyrosine-protein kinase JAK1 (P23458 whole entry): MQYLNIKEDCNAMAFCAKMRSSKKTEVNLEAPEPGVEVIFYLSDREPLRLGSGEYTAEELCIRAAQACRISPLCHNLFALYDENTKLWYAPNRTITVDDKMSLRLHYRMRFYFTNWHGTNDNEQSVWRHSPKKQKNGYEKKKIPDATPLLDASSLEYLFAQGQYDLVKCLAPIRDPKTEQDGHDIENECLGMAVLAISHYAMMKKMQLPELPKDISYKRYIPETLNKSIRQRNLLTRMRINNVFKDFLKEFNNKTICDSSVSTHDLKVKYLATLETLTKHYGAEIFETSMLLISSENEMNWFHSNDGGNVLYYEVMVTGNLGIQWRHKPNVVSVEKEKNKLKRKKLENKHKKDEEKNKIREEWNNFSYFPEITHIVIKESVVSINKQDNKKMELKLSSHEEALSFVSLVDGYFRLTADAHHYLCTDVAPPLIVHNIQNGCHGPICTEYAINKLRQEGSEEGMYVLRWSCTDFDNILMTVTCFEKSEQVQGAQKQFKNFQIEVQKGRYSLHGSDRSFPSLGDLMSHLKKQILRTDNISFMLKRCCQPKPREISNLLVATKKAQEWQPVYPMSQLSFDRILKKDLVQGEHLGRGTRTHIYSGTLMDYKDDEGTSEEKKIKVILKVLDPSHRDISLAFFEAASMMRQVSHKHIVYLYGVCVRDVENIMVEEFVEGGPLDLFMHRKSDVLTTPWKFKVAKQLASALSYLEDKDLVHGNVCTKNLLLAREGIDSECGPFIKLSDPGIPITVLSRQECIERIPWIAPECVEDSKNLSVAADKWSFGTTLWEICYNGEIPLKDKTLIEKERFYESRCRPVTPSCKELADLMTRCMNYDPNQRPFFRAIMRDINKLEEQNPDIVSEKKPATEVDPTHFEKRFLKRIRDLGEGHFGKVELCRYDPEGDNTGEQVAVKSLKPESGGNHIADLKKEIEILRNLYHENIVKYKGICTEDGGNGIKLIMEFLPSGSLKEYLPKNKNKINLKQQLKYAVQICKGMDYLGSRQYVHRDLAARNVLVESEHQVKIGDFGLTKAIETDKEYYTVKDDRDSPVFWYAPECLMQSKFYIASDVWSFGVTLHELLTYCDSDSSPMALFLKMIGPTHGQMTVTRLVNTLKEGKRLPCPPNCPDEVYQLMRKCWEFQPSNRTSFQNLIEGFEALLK
Sequence of NaV1.5 (Q14524 whole entry): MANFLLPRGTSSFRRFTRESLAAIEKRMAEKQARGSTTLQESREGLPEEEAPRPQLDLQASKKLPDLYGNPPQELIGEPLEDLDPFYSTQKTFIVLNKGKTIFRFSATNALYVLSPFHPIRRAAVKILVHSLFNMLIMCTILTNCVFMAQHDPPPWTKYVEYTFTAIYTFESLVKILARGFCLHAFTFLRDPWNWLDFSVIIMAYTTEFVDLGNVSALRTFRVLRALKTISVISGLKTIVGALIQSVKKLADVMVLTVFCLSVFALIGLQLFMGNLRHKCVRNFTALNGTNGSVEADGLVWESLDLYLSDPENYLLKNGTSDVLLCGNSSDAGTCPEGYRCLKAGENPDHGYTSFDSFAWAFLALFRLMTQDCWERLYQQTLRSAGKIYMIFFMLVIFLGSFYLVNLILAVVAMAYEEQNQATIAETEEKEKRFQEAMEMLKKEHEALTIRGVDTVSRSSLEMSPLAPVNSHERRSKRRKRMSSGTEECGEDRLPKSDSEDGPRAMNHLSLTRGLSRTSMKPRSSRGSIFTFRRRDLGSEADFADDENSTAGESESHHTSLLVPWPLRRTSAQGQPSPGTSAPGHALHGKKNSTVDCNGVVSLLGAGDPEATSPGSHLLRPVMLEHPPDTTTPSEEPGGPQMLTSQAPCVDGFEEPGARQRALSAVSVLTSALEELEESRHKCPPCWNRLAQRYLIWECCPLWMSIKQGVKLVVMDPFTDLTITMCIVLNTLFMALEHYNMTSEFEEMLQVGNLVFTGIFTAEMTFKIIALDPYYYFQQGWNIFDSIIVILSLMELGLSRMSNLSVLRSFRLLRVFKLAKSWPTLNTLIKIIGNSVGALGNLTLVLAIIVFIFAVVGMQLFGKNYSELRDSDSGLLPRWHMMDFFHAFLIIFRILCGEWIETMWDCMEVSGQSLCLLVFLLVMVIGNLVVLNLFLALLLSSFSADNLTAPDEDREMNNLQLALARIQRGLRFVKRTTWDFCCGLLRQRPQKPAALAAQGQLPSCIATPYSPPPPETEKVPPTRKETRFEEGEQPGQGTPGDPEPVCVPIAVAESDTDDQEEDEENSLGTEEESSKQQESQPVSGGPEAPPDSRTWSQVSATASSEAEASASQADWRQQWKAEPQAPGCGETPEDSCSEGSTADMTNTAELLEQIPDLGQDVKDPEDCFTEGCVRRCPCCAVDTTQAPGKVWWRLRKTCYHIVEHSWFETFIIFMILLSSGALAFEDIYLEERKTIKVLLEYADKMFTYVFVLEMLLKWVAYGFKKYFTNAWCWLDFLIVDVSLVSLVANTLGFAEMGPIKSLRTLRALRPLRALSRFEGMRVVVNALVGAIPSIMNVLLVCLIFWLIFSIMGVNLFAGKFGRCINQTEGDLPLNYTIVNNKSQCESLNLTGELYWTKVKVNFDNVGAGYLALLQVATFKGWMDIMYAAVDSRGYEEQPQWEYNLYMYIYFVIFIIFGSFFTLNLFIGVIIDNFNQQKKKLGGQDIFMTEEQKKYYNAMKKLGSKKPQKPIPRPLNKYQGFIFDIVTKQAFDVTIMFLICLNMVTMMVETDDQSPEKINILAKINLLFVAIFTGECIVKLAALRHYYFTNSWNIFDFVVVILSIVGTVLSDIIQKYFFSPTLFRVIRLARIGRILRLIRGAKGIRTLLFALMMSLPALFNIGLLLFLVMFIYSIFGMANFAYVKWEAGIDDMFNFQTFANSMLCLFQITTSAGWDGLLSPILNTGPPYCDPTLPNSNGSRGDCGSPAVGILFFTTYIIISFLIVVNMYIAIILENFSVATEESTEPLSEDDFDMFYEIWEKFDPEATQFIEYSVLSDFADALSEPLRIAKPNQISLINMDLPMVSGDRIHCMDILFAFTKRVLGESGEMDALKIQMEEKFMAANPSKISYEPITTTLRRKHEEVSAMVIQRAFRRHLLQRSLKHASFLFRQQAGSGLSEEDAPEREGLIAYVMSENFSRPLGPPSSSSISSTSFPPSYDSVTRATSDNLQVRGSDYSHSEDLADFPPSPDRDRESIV
Sequence of hERG (KCNH2) (Q12809 whole entry): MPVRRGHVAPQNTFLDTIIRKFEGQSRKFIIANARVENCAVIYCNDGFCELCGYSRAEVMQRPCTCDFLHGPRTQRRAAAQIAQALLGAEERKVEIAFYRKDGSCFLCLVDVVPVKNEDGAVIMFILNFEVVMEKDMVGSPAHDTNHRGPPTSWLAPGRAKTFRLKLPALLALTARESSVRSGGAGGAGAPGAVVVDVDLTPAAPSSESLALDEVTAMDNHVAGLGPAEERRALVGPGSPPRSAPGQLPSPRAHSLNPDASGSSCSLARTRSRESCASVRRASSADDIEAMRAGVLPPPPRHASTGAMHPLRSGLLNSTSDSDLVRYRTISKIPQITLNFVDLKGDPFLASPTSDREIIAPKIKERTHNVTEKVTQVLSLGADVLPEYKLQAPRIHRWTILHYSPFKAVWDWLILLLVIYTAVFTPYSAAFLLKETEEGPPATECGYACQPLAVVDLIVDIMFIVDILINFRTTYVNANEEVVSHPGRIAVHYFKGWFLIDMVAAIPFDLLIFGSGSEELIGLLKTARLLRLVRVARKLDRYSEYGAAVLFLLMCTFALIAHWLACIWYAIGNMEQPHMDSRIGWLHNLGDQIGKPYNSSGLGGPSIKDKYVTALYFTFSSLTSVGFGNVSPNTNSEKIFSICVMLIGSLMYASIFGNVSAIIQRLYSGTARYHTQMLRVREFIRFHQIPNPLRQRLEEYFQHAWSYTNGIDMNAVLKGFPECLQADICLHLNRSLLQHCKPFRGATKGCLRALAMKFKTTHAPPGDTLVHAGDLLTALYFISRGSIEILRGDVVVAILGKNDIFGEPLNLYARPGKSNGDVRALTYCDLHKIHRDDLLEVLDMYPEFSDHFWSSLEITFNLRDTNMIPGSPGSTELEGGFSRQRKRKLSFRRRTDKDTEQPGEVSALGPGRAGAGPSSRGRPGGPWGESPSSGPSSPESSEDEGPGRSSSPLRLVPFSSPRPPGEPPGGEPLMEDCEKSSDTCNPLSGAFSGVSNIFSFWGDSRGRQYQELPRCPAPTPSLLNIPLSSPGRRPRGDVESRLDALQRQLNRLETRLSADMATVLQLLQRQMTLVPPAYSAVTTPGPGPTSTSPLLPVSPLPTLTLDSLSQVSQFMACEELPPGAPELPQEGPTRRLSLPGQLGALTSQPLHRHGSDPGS
Description for CHO-K1: Cytotoxicity against CHOK1 cells assessed as reduction in ATP levels incubated for 24 hrs by ATPlite luminescence assay
Description for Cav1.2: Inhibition of Cav1.2 (unknown origin) at 10 uM relative to control
Description for NaV1.5: Inhibition of NaV1.5 (unknown origin) at 10 uM relative to control
Description for hERG (KCNH2): Inhibition of human ERG at 10 uM relative to control
Description for physchem: Lipophilicity, log D of compound

Take `O=c1[nH]c2cnc(-c3cnc4ccc(F)cn34)nc2n1[C@@H]1CCOc2c(F)cccc21`: the IC50 in data set [1] was determined as 0.024 µM; in the data set with CHO-K1, 4 µM.

Regarding `C[C@H](c1ncc(F)cn1)n1c(=O)[nH]c2cnc(-c3cnc4ccc(F)cn34)nc21`, the 50% inhibitory concentration (IC50) in data set [1] worked out at 0.0035 µM; in the data set with CHO-K1 it was 4.3 µM.

As to `O=c1[nH]cc(F)cc1Nc1ncc2[nH]c(=O)n([C@@H]3CCOc4c(F)cccc43)c2n1`, the IC50 in the data set on CHO-K1 was over 100 µM.

On to `C[C@]1(O)CC[C@H](n2c(=O)[nH]c3cnc(-c4cnc5ccc(F)cn45)nc32)CC1`, for which the IC50 in data set [1] amounted to 0.079 µM; with CHO-K1, 16 µM.

Take `Cc1c[nH]c(=O)c(Nc2ncc3[nH]c(=O)n([C@@H]4CCOc5c(F)cccc54)c3n2)c1`: it took 51 µM to reach half-maximal inhibition with CHO-K1 (IC50).

As for `C[C@H](c1ccc(F)cn1)n1c(=O)[nH]c2cnc(Nc3cc(F)c[nH]c3=O)nc21`, in the data set with CHO-K1, the IC50 was over 100 µM.

For the compound `C[C@H](c1ccc(F)cn1)n1c(=O)[nH]c2cnc(Nc3ccc[nH]c3=O)nc21`, the IC50 in the data set with CHO-K1 was over 100 µM.

Compound `O=c1[nH]c2cnc(-c3cnc4ccc(F)cn34)nc2n1[C@H]1CC[C@H](O)CC1` came in with an IC50 in the data set with CHO-K1 of 100 µM.

In the data set on CHO-K1, `O=c1[nH]cc(Cl)cc1Nc1ncc2[nH]c(=O)n([C@@H]3CCOc4c(F)cccc43)c2n1` returned an IC50 of 36 µM.

Take `N#CC[C@H]1CC[C@H](n2c(=O)[nH]c3cnc(Nc4ccc[nH]c4=O)nc32)CC1`: the metabolised at 0.5 h, 5 µM in the data set “in vitro [2]” worked out at 17%; in the data set “in vitro [12]”, 21%. The compound also displayed a fCmax in data set [3] of 57 ng/mL. In “in vivo [4]”, this compound yielded an AUC(0-inf) at 24 h of 32 ng·h/mL. Moreover, the AUC at 24 h in “in vivo [5]” was 118 ng·h/mL; in the data set “in vivo [9]” it was 406 ng·h/mL. For the same compound, the fraction unbound is 0.17 in the data set “in vitro [6]” and 0.21 in the data set “in vitro [8]”. Moreover, the solubility entry in data set [7] and in data set [14] was “Soluble” each time. Further, in the data set “in vivo [10]”, the peak concentration (Cmax) at 24 h turned out to be 7 ng/mL. Also, the inhibition at 10 µM at hERG (KCNH2), at Cav1.2 and on NaV1.5 was under 15% throughout. This compound also showed a half-life at 24 h in the data set “in vivo [11]” of 16.3 h. The Stability entry in data set [13] is on record as “Stable”. The half-maximal inhibitory concentration (IC50) with CHO-K1 was over 100 µM. In addition, the logD in the data set “physchem” is 2.1. This compound also showed a Papp at 5 h, 20 µM in the data set “in vitro [15]” of 0.61 ×10⁻⁶ cm/s.
